What all share (format): in vivo, mouse
In test [1] the test system is inflammatory cytokines. The experiment in a line: Multiplex cytokine quantification in sera and spleens of septic B6 mice. The method, then:
FIG. 5: Cytokine levels in the sera and spleens of septic B6 mice. […] Concentrations of iNKT cell-specific cytokines are shown from sera (b) and spleen homogenates (c) of septic mice treated with vehicle, OCH, or KRN7000 (n=4-8 per group). Concentrations of cytokines are shown in pg/mL. *p<0.05, **p<0.01, ***p<0.001 by one-way ANOVA with post-hoc Tukey's multiple comparison test. Data are representative of at least three independent experiments.
Serum was analyzed by bead-based multiplex assay for 32 different cytokines, chemokines, and growth factors (Eve Technologies, Calgary, Alberta, Canada) including granulocyte-colony stimulating factor (G-CSF), granulocyte macrophage-colony stimulating factor (GM-CSF), interferon-gamma (IFN-γ), interleukin (IL)-1α, IL-1β, IL-2, IL-3, IL-4, IL-5, IL-6, IL-7, IL-9, IL-10, IL-12 (p40), IL-12 (p70), IL-13, IL-15, IL-17A, IP-10, keratinocyte chemo-attractant (KC), leukemia inhibitory factor (LIF), lipopolysaccharide-induced CXC chemokine (LIX), monocyte chemotactic protein (MCP)-1, monocyte-colony stimulating factor (M-CSF), monokine induced by gamma interferon (MIG), macrophage inflammatory protein (MIP)-1α, MIP-1β, MIP-2, Regulated on Activation, Normal T cell Expressed and Secreted (RANTES), tumour necrosis factor (TNF)-α, and vascular endothelial growth factor (VEGF). Multiplex data was visualized using a cytokine heat map that was generated using Matrix2png (33).

Test [2] concerns B6 mice with intra-abdominal sepsis (IAS). The experiment in a line: Murine intra-abdominal sepsis (IAS) model: survival and murine sepsis score (MSS). The following applies: septic B6 mice; for median survival: 4 μg i.p. single dose, vehicle 24 hours; for murine sepsis score (MSS) after 24 h: compared to vehicle treatment. How it is done:
Stool from the cecum of euthanized naïve B6 mice was expressed through an enterotomy, homogenized, and suspended in 0.9% normal saline (NS) to produce a fecal slurry at a final concentration of 90 mg/mL, for use in experiments on the same day. Mice were injected intraperitoneally with 500 μL fecal slurry or 0.9% normal saline (sham group). The mice were monitored and scored by two independent investigators—one of whom was blinded to the treatment—every 2-3 hours for the first 12 hours, and then every 1-2 hours thereafter. A murine sepsis score (MSS) was assigned to each mouse based on activity, eye movement, response to exogenous stimuli, breathing rate and pattern, and degree of piloerection (Shrum et al. BMC Research Notes 2014, 7:233). The MSS is a reliable and robust scoring system that has excellent inter-rater reliability (intra-class coefficient=0.96), high internal consistency (Cronbach α=0.92), and correlates with levels of certain pro-inflammatory cytokines such as IFN-γ and IL-1β during the experimental timeline (Shrum et al. BMC Research Notes 2014, 7:233). Mice were euthanized at 24 hours, or earlier if they were deemed to be in significant distress based on our scoring model. Euthanasia was carried out as described above. At the time of sacrifice, intra-cardiac blood was drawn into 1.5 mL micro-centrifuge tubes (BD Biosciences) and centrifuged for serum at 1000×g for 30 minutes at 4° C.
Lyophilized OCH was generously provided by the National Institutes of Health (NIH) Tetramer Core Facility (Emory University, Atlanta, Ga.). Each vial containing 0.2 mg of OCH was solubilized in a vehicle solution containing 1 mL of sterile distilled water, 0.5% Tween 20, 56 mg of sucrose and 7.5 mg of histidine, and stored as aliquots at 4° C. until use. KRN7000 (α-GalCer, C26:0/C18:0) was purchased from Funakoshi Co. Ltd. (Tokyo, Japan), solubilized at 1 mg/ml in dimethylsulphoxide (DMSO), and stored as aliquots at −20° C. until use (29); the control vehicle was 2% DMSO in phosphate-buffered saline (PBS). C20:2 was synthesized and used as previously published (30, 31). For in vivo experiments, mice were injected intraperitoneally (i.p.) with a single dose of glycolipid (4 μg/dose) (30) within twenty minutes after induction of IAS.

Test [3] concerns iNKT cells. The experiment in a line: Flow cytometric detection of iNKT and T cells in spleen and liver of septic B6 mice. The conditions noted are these: 24 hours. How it is done:
FIG. 10: Effect of glycolipid agonists on cytokine expression in naïve B6 mice, and on iNKT cells in septic B6 mice. (a) Naïve B6 mice were injected i.p. with 4 μg OCH or KRN7000 or C20:2, and bled at 2, 12, and 24 hours post-injection. Serum samples were assayed for IL-4 and IFN-γ by enzyme-linked immunosorbent assay (ELISA). […] Vehicle-treated mice had cytokine levels below limits of detection. (b) B6 mice were given an intraperitoneal injection of fecal slurry (500 μL of a 90 mg/mL solution) to induce IAS and concomitantly treated with 4 μg of vehicle, OCH, or KRN7000. After 24 hours, mice were sacrificed, and cell suspensions from the liver and spleen were stained for the flow cytometric detection of CD1d tetramer+ TCRβ+iNKT cells.
To obtain hepatic lymphoid mononuclear cells (MNCs), mice were euthanized, and livers were flushed with sterile PBS before they were harvested and pressed through a 40-μm nylon mesh. The resulting homogenate was washed in cold PBS, resuspended in a 33.75% Percoll PLUS solution (GE Healthcare Bio-Sciences) and spun at 700×g for 12 min at room temperature. The pelleted cells were then treated with ACK lysis buffer to remove erythrocytes and washed in cold PBS prior to staining. To obtain omental lymphoid MNCs, the spleen, pancreas, and omentum were removed en-bloc and suspended in ice-cold PBS. The omenta floated above the spleen-pancreas complex and were removed and processed similar to the liver. Spleens were processed with a tissue homogenizer, and the resulting homogenate was washed in cold PBS. The pelleted cells were treated with ACK lysis buffer for 4 minutes to remove erythrocytes, and washed in cold PBS prior to staining.
Mouse hepatic, splenic, and omental cells (1×106), and human PBMCs (1×106) were washed with cold FACS buffer [PBS+2% fetal bovine serum (FBS)+0.1% sodium azide] and incubated with 5 μg/ml anti-mouse CD16/CD32 mAb (clone 2•4G2, Fc-block, eBiosciences) for 20 min on ice before staining with fluorescent monoclonal antibodies (mAbs) diluted in FACS buffer at 4° C. for 30-40 min. […]
For orientation: In flow cytometry, cells or beads pass a laser one at a time.

The mark [4] stands for this setting: KRN7000 compared to OCH-treated group.

Usually mortality stands for the share of the test organisms that died. A high value points to a strong lethal effect. Turning to `CCCCCCCCCCCCCCCCCCCCCCCCCC(=O)N[C@@H](CO[C@H]1O[C@H](CO)[C@H](O)[C@H](O)[C@H]1O)[C@H](O)[C@H](O)CCCCCCCCCCCCCC` [KRN7000, reference compound], in test [1] (setting [4]), the “spleen IFN-γ” value is reported as “significantly elevated”, the “spleen IL-3” value is reported as “significantly elevated”, the “spleen IL-4” value is “significantly elevated” and the “spleen IL-17” value is “significantly elevated”. In addition, the “spleen TNF-α” value in test [1] (setting [4]) is on record as “significantly elevated”. In test [2], the “response to auditory and touch stimuli” value is on record as “non-responsive”; the median survival was 22 h; the “murine sepsis score (MSS) after 24 h” value is recorded as “no statistical differences”. Besides, the mortality in test [2] (by 24 hours) was 100%. Moreover, the “time to respiratory distress (laboured breathing and reduced respiratory rates)” value in test [2] (most mice, post-sepsis) was not above 15 h. Further, in test [3], the “detection of iNKT cells versus OCH treatment” value is recorded as “significantly lower” and the “detection of iNKT cells versus vehicle” value was “significantly reduced”.

For `CCCCCCCCCCCCCCCCCCCCCCCC(=O)N[C@@H](COC1OC(CO)C(O)C(O)C1O)[C@H](O)[C@H](O)CCCCC` (stereo partly drawn) [OCH], the “serum mean concentration of IL-17” value in test [1] (OCH compared to KRN7000-treated) is on record as “significantly lower”. Moreover, the “serum concentration of IL-13” value in test [1] (compared to KRN7000-treated and vehicle-treated) is “higher”. In test [2], the “response to auditory and touch stimuli” value is listed as “more responsive”; the median survival was determined as 28 h; the “murine sepsis score (MSS) after 24 h” value is recorded as “significantly lower”. The survival time in test [2] (4 μg i.p.) is more than 24 h. Also, in test [2] (observed up to 24 hours), the respiratory status result is “relatively normal respiratory rates”. In addition, in test [2] (up to 24 hours), the “course of MSS over time” value is recorded as “reached a plateau”. Besides, the “detection of iNKT cells versus vehicle” value in test [3] is listed as “significantly reduced”.

The values are drawn from US20170027973A1, “MODULARION OF INVARIANT NATURAL KILLER T CELLS IN THE TREATMENT OF SEPSIS” (LONDON HEALTH SCIENCES CENTRE RESEARCH INC., priority 2014, published 2017).
